Laboratory results as given in PubChem BioAssay (NCI).
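Cells were grown in 96-well plates and exposed to each compound for 48 hours at five concentrations; endpoints were interpolated linearly between bracketing concentrations, or set to the highest concentration if not reached. At the GI50, growth is halved. TGI is the concentration that stops growth completely.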

Columns and labels:
Assay in all cases: NCI tumour cell line growth inhibition, 48 h
LOX IMVI melanoma = test system: LOX IMVI melanoma
A549 NSCLC = test system: A549 NSCLC
SR leukemia = test system: SR leukemia
SF-268 CNS = test system: SF-268 CNS
MALME-3M melanoma = test system: MALME-3M melanoma
OVCAR-5 ovarian = test system: OVCAR-5 ovarian
OVCAR-3 ovarian = test system: OVCAR-3 ovarian
SK-MEL-28 melanoma = test system: SK-MEL-28 melanoma
SK-OV-3 ovarian = test system: SK-OV-3 ovarian
NCI-H460 lung = test system: NCI-H460 lung

Compound | TGI (LOX IMVI melanoma) | TGI (A549 NSCLC) | TGI (SR leukemia) | TGI (SF-268 CNS) | TGI (MALME-3M melanoma) | TGI (OVCAR-5 ovarian) | TGI (OVCAR-3 ovarian) | TGI (SK-MEL-28 melanoma) | TGI (SK-OV-3 ovarian) | TGI (NCI-H460 lung) | GI50 (LOX IMVI melanoma) | GI50 (A549 NSCLC) | GI50 (SR leukemia) | GI50 (SF-268 CNS) | GI50 (MALME-3M melanoma) | GI50 (OVCAR-5 ovarian) | GI50 (OVCAR-3 ovarian) | GI50 (SK-MEL-28 melanoma) | GI50 (SK-OV-3 ovarian) | GI50 (NCI-H460 lung)
Clc1ccc(NCNC2Nc3ccccc3N2)cc1Cl | > 100 µM | > 100 µM | > 100 µM | > 100 µM | > 100 µM | > 100 µM | > 100 µM | > 100 µM | > 100 µM | > 100 µM |  |  |  |  |  |  |  |  |  | 
CCOC(=O)c1sc2nc(=S)[nH]c(NC(N)=S)c2c1C | 31 µM | 90.7 µM | 64.7 µM | 42.7 µM | 72.1 µM | 75.7 µM | 56.2 µM | 41.6 µM | 61.3 µM | 61 µM | 15.4 µM | 31.2 µM | 20.9 µM | 17.8 µM | 37 µM | 26.1 µM | 26.4 µM | 19 µM | 20.6 µM | 23.2 µM
C=C(C)[C@@H]1CC[C@]2(C(=O)OC)CC[C@]3(C)[C@H](CC[C@@H]4[C@@](C)(CCc5nn[nH]n5)[C@H](C(=C)C)CC[C@]43C)[C@@H]12 | 29.5 µM | 34.9 µM | 49.4 µM | 34.9 µM | 31.7 µM | 35.9 µM | 27 µM | 27.8 µM | 82.8 µM | 44 µM | 16 µM | 12.4 µM | 11.4 µM | 15.7 µM | 16.3 µM | 19.4 µM | 13.5 µM | 12.9 µM | 25.6 µM | 20.5 µM
O=C(c1ccccc1)c1nc2ccc(Cl)cc2cc1C(Br)Br | 3.7 µM | 3.31 µM | 21.2 µM | 0.972 µM | 5.43 µM | 2 µM | 0.856 µM | 0.814 µM | 2.73 µM | 1.31 µM |  |  |  |  |  |  |  |  |  | 
O=C(O)C1CCCN1 (stereo not given) | > 100 µM | > 100 µM | > 100 µM | > 100 µM | > 100 µM | > 100 µM | > 100 µM | > 100 µM | > 100 µM | > 100 µM |  |  |  |  |  |  |  |  |  | 
[O-]c1ccccc1C=NCCN=Cc1ccccc1[O-].[O]=[U+2]=[O] | > 100 µM | > 100 µM | > 100 µM | 66.5 µM | > 63.5 µM | > 100 µM | 95.3 µM | > 78.7 µM | 57 µM | 43.7 µM | 22.2 µM | 43.1 µM | 51.1 µM | 25.1 µM | 39.7 µM | > 100 µM | 24.5 µM | > 50.9 µM | 24.3 µM | 19.6 µM
CN1CCN(CCCOC(=O)c2c3c(n4ccccc24)C(=O)c2ncccc2C3=O)CC1 | 0.0334 µM | 0.0593 µM | > 100 µM | 10.3 µM | 1.14 µM | 3.65 µM | 4.95 µM | 4.25 µM | 0.0278 µM | < 0.0118 µM | < 0.01 µM | < 0.01 µM | < 0.01 µM | < 0.01 µM | 0.0265 µM | 0.357 µM | 0.0403 µM | 0.08 µM | < 0.01 µM | < 0.01 µM
Cc1cc(C)c2c(c1)CSCc1cc(C)cc(C)c1-2 | 33.2 µM | > 100 µM | 47.4 µM | > 100 µM | 56.8 µM | > 100 µM | > 100 µM | > 100 µM | > 100 µM | 56 µM |  |  |  |  |  |  |  |  |  | 
O=[N+]([O-])c1ccc(Cl)c(C2CC(c3cccc4ccccc34)=Nc3ccccc3S2=O)c1 (stereo not given) | > 31.6 µM | > 100 µM | 93.1 µM | > 100 µM | 42.5 µM | 76.1 µM | 83.4 µM | 42.8 µM | > 100 µM | > 76.4 µM |  |  |  |  |  |  |  |  |  | 
CC(C)Cn1cnc2c(N)nc3ccccc3c21 | > 100 µM | > 100 µM | > 100 µM | > 100 µM | > 100 µM | > 100 µM | > 100 µM | > 100 µM | > 100 µM | > 100 µM | 25.7 µM | 39.3 µM | > 100 µM | 61.3 µM | > 100 µM | 65.4 µM | > 92.9 µM | > 74.9 µM | > 100 µM | 23.1 µM
Oc1ccc(CCNc2nc3ccccc3c3[nH]c4ccccc4c23)cc1O | 3.28 µM | 5.95 µM | 5.74 µM | 30.1 µM | 6.28 µM | 26.9 µM | 3.7 µM | 18.3 µM | 22.6 µM | 5.54 µM | 1.77 µM | 2.26 µM | 1.92 µM | 5.7 µM | 2.23 µM | 14 µM | 1.77 µM | 5.85 µM | 10.7 µM | 2.17 µM
CC1=NC2(C(=O)O)C3(C(=O)O)N=C(C)OC3(C(F)(F)F)C2(C(F)(F)F)O1 (stereo not given) | > 100 µM | > 100 µM | > 100 µM | > 100 µM | > 100 µM | > 100 µM | > 100 µM | > 100 µM | > 100 µM | > 100 µM |  |  |  |  |  |  |  |  |  | 
